These results are taken from patent US20120065187A1 (ALCON RESEARCH, LTD, priority 2008, published 2012).

By EC50 is commonly meant the concentration giving half of the maximal effect.

The target in assay [1] is T1, human H4 (Homo sapiens, UniProt Q9H3N8).
T1 construct: host or cells: CHO-K1
The experiment in a line: In vitro histamine receptor cell-based assay (aequorin bioluminescence), H4 antagonism. Conditions: CHO-K1 cells expressing human H4, aequorin and Gα16; histamine at EC80; read-out: H4 Antagonist EC50. The method, boiled down: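 CHO-K1 cells stably expressing human H4, Gα16 and mitochondrial aequorin, loaded with 5 μM coelenterazine-h, preincubated 15 min at room temperature with compound, then challenged with histamine at EC80.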

For assay [2], the target named is T2, human H1 (Homo sapiens, UniProt P35367).
T2 construct: host or cells: CHO-K1
In words: In vitro histamine receptor cell-based assay (aequorin bioluminescence), H1 antagonism. The following applies: CHO-K1 cells expressing human H1 and aequorin; histamine at EC80; read-out: H1 Antagonist EC50. In a few lines: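 Stable CHO-K1 lines expressing human H1 or H4 (H4 with Gα16) plus mitochondrial aequorin, loaded 4 h with 5 μM coelenterazine-h at ~21 °C. Compounds preincubated 15 min, then histamine at EC80 added; bioluminescence decrease (AUC or max–min) expressed as % of positive control (diphenhydramine for H1, JNJ7777120 for H4, 10 μM).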

For assay [3], the system named is Hartley VAF outbred guinea pigs. In words: Allergic conjunctivitis in passively sensitized guinea pigs (conjunctival EPO activity). Format: in vivo. More on the design: key: +: a 0.01% bid dose was statistically equivalent to dexamethasone with respect to reduction of EPO activity; −: the compound was statistically inferior to dexamethasone and not different than vehicle. Conditions: reduction of conjunctival EPO activity vs dexamethasone; for BID activity: 0.01% bid topical, 1 hour prior to and 8 hours after ovalbumin challenge; for QD activity: ≦0.1% qd topical, 1 hour prior to ovalbumin challenge. How it is done:
Male Hartley VAF outbred guinea pigs were passively sensitized to ovalbumin by a single OD subconjunctival injection of undiluted guinea pig anti-ovalbumin antiserum 24 hours before OD topical challenge with 500 μg ovalbumin in saline. Control animals were injected with saline only and challenged with ovalbumin. To determine acute phase drug efficacy, 30 min after challenge animals were clinically scored by a masked observer for severity of signs of conjunctivitis based on a standard scale. Test compounds were administered topically 1 hour prior to challenge (QD protocol), or 1 hour prior to challenge and again 8 hours after challenge (BID protocol). Twenty-four hours after challenge, animals were euthanized and conjunctivae were harvested for determination of tissue eosinophil peroxidase (EPO) concentration as a marker of allergic inflammation. Homogenates of freshly collected tissues were prepared by shaking the tissues in 2 mL round-bottom tubes containing 0.5 mL of homogenization buffer (50 mM Tris HCl, pH 8.0, 6 mM KBr) and one 5-mm stainless steel bead on a Qiagen TissueLyser at 30 Hz for 5 min. Homogenates were frozen and thawed once, then centrifuged at 10,000 rpm for 5 min. EPO activity in supernatants was measured by reacting diluted homogenates with a solution of 6 mM o-phenylenediamine substrate and 8.8 mM H2O2 in homogenization buffer for 3 min. The reaction was stopped with 4M H2SO4 and absorbances were measured at […] on a spectrophotometric plate reader. Total EPO in samples was calculated from a standard curve of recombinant human EPO in each assay. EPO activity was normalized to total protein concentration (Pierce BCA assay) in supernatants. Background EPO activity was determined from the unsensitized, antigen-challenged control group. Percent inhibition was calculated from the sensitized, antigen-challenged, vehicle-treated control group in each experiment. Ovalbumin-injected animals dosed topically with 0.1% w/v dexamethasone (dex) served as positive control. Groups were compared by ANOVA with Dunnett's or Tukey's post-hoc tests where appropriate with significance assigned at the 95% confidence level.
The table below summarizes the results.

T2 sequence (P35367 whole entry): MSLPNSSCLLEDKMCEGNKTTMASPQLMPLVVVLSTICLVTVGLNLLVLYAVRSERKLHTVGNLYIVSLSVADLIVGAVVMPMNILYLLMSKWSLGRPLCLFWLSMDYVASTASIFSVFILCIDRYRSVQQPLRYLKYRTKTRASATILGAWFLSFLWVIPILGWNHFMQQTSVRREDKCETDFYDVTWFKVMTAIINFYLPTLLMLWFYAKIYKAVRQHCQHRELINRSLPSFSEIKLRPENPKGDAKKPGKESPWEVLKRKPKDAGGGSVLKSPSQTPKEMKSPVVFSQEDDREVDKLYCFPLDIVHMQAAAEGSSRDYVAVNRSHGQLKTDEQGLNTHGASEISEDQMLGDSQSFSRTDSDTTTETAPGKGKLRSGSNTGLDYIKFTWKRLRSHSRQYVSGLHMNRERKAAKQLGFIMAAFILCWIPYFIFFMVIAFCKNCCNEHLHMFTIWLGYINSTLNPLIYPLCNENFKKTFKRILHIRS
T1 sequence (Q9H3N8 whole entry): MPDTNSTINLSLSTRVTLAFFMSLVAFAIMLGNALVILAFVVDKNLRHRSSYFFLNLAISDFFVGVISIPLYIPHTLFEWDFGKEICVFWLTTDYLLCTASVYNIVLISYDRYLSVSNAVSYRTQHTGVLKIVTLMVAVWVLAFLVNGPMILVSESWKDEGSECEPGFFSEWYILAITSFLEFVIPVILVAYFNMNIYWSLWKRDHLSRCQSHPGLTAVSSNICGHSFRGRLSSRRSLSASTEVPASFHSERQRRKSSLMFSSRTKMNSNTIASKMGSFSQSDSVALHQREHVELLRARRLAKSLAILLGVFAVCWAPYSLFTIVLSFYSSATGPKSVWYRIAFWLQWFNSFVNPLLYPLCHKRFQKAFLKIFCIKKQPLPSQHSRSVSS

Consider `CN1CCN(c2nc3ccc(Cl)cc3n3ccnc23)CC1` [Example 7, 8-Chloro-4-(4-methylpiperazin-1-yl)imidazo[1,2-a]quinoxaline], for which the results for the EC50 in assay [1] and in assay [2] were less than 10 µM and more than 10 µM, respectively. Besides, the BID activity result in assay [3] was “−”.
On the same counts, the results for `Cc1ccc2nc(N3CCN(C)CC3)c3nncn3c2c1` [Example 21, 8-Methyl-4-(4-methylpiperazin-1-yl)-[1,2,4]triazolo[4,3-a]quinoxaline] are less than 10 µM, more than 10 µM and “−”.
On the same counts, the results for `CN1CCN(c2nc3ccc(C(F)(F)F)cc3n3cnnc23)CC1` [Example 23, 4-(4-methylpiperazin-1-yl)-8-(trifluoromethyl)-[1,2,4]triazolo[4,3-a]quinoxaline] are less than 10 µM, more than 10 µM and “+”.
With `CN1CCN(c2nc3ccc(C(F)(F)F)cc3n3nnnc23)CC1` [Example 27, 4-(4-methylpiperazin-1-yl)-8-(trifluoromethyl)tetrazolo[1,5-a]quinoxaline], the values for the EC50 in assay [1] and in assay [2] were less than 10 µM and more than 10 µM, respectively. For the same compound, in assay [3], the QD activity result is listed as “−”.
Consider `CN1CCN(c2nc3cc(F)c(Cl)cc3n3cnnc23)CC1` [Example 31, 8-chloro-7-fluoro-4-(4-methylpiperazin-1-yl)-[1,2,4]triazolo[4,3-a]quinoxaline], for which the EC50 in assay [1] is less than 10 µM; in assay [2], more than 10 µM. The QD activity result in assay [3] is recorded as “−”.
For `Fc1cc2nc(N3CCNCC3)c3nncn3c2cc1Cl` [Example 32, 8-chloro-7-fluoro-4-(piperazin-1-yl)-[1,2,4]triazolo[4,3-a]quinoxaline], the values for the half-maximal effective concentration (EC50) in assay [1] and in assay [2] were less than 10 µM and more than 10 µM, respectively. The BID activity result in assay [3] is given as “+”.
On the same counts, the results for `CN1CCN(c2nc3cc(F)c(F)cc3n3cnnc23)CC1` [Example 37, 7,8-difluoro-4-(4-methylpiperazin-1-yl)-[1,2,4]triazolo[4,3-a]quinoxaline] are less than 10 µM, more than 10 µM and “+”.
As to `CN1CCN(c2nc3cc(Cl)c(Cl)cc3n3cnnc23)CC1` [Example 39, 7,8-dichloro-4-(4-methylpiperazin-1-yl)-[1,2,4]triazolo[4,3-a]quinoxaline], the results for the EC50 in assay [1] and in assay [2] were less than 10 µM and more than 10 µM, respectively. Moreover, the BID activity result in assay [3] was “+”.
Turning to `Fc1cc2nc(N3CCNCC3)c3nncn3c2cc1C(F)(F)F` [Example 41, 7-Fluoro-4-(piperazin-1-yl)-8-(trifluoromethyl)-[1,2,4]triazolo[4,3-a]quinoxaline], the 50% effective concentration (EC50) was less than 10 µM in assay [1] and more than 10 µM in assay [2]. Moreover, in assay [3], the QD activity entry is given as “−”.
On the same counts, the results for `Fc1cc(C(F)(F)F)cc2c1nc(N1CCNCC1)c1nncn12` [Example 49, 6-Fluoro-4-(piperazin-1-yl)-8-(trifluoromethyl)-[1,2,4]triazolo[4,3-a]quinoxaline] are less than 10 µM, more than 10 µM and “−”.
On the same counts, the results for `Brc1ccc2nc(N3CCNCC3)c3nncn3c2c1` [Example 52, 8-bromo-4-(piperazin-1-yl)-[1,2,4]triazolo[4,3-a]quinoxaline] are less than 10 µM, more than 10 µM and “−”.
On the same counts, the results for `CN1CCN(c2nc3ccc(Br)cc3n3cnnc23)CC1` [Example 54, 8-bromo-4-(4-methylpiperazin-1-yl)-[1,2,4]triazolo[4,3-a]quinoxaline] are less than 10 µM, more than 10 µM and “−”.
As for `Clc1ccc2nc(N3CCCNCC3)c3nncn3c2c1` [Example 66, 8-chloro-4-(1,4-diazepan-1-yl)-[1,2,4]triazolo[4,3-a]quinoxaline], the results for the concentration for a half-maximal effect (EC50) in assay [1] and in assay [2] were less than 10 µM and more than 10 µM, respectively. In addition, the QD activity entry in assay [3] is reported as “−”.
In the case of `Cc1nc2c3cc(Cl)c(F)cc3nc(N3CCN(C)CC3)n2n1` [Example 95, 9-Chloro-8-fluoro-2-methyl-5-(4-methylpiperazin-1-yl)-[1,2,4]triazolo[1,5-c]quinazoline], the figures for the EC50 in assay [1] and in assay [2] were less than 10 µM and more than 10 µM, respectively. Besides, the BID activity result in assay [3] was “−”.
Take `Cc1ccc2nc(N3CCN(C)CC3)n3nc(C)nc3c2c1` [Example 99, 2,9-Dimethyl-5-(4-methylpiperazin-1-yl)-[1,2,4]triazolo[1,5-c]quinazoline]: the concentration for a half-maximal effect (EC50) in assay [1] is less than 10 µM. Moreover, in assay [2], the EC50 was more than 10 µM. Besides, in assay [3], the BID activity entry was “+” and the QD activity entry is on record as “−”.
Take `Cc1nc2c3cc(C(F)(F)F)ccc3nc(N3CCNCC3)n2n1` [Example 104, 2-Methyl-5-(piperazin-1-yl)-9-(trifluoromethyl)-[1,2,4]triazolo[1,5-c]quinazoline]: the results for the EC50 in assay [1] and in assay [2] were less than 10 µM and more than 10 µM, respectively. The QD activity result in assay [3] is given as “−”.
With `Cc1nc2c3ccc(C(F)(F)F)cc3nc(N3CCN(C)CC3)n2n1` [Example 109, 2-Methyl-5-(4-methylpiperazin-1-yl)-8-(trifluoromethyl)-[1,2,4]triazolo[1,5-c]quinazoline], the EC50 is less than 10 µM in assay [1] and more than 10 µM in assay [2]. Also, the BID activity result in assay [3] is given as “−”.
Regarding `Cc1nc2c(N3CCN(C)CC3)nc3cc(F)c(Cl)cc3c2o1` [Example 216, 8-chloro-7-fluoro-2-methyl-4-(4-methylpiperazin-1-yl)oxazolo[4,5-c]quinoline], the values for the EC50 in assay [1] and in assay [2] were less than 10 µM and more than 10 µM, respectively.
As for `Cc1nc2c(N3CCNCC3)nc3cc(F)c(Cl)cc3c2o1` [Example 217, 8-chloro-7-fluoro-2-methyl-4-(piperazin-1-yl)oxazolo[4,5-c]quinoline], the values for the EC50 in assay [1] and in assay [2] were less than 10 µM and more than 10 µM, respectively.
On the same counts, the results for `CN1CCN(c2nc3ccc(C(F)(F)F)cc3c3conc23)CC1` [Example 218, 4-(4-methylpiperazin-1-yl)-8-(trifluoromethyl)isoxazolo[3,4-c]quinoline] are less than 10 µM and more than 10 µM.
Take `CN1CCN(c2nc3cc(C(F)(F)F)ccc3c3conc23)CC1` [Example 220, 4-(4-Methylpiperazinyl)-7-(trifluoromethyl)isoxazolo[3,4-c]quinoline]: the EC50 in assay [1] was less than 10 µM; in assay [2], more than 10 µM.
On to `CN1CCN(c2nc3ccc(Br)cc3c3conc23)CC1` [Example 222, 8-bromo-4-(4-methylpiperazin-1-yl)isoxazolo[3,4-c]quinoline], for which the EC50 was less than 10 µM in assay [1] and more than 10 µM in assay [2].
On the same counts, the results for `Brc1ccc2nc(N3CCNCC3)c3nocc3c2c1` [Example 223, 8-bromo-4-(piperazin-1-yl)isoxazolo[3,4-c]quinoline] are less than 10 µM and less than 10 µM.
As to `CN1CCN(c2nc3ccc(C(F)(F)F)c(F)c3n3cnnc23)CC1` [Example 236, 9-fluoro-4-(4-methylpiperazin-1-yl)-8-(trifluoromethyl)-[1,2,4]triazolo[4,3-a]quinoxaline], the figures for the EC50 in assay [1] and in assay [2] were less than 10 µM and more than 10 µM, respectively.
On the same counts, the results for `Cc1nc2c3cc(Cl)ccc3nc(N3CCN4CCCC4C3)n2n1` (stereo not drawn) [Example 245, 9-chloro-5-(hexahydropyrrolo[1,2-a]pyrazin-2(1H)-yl)-2-methyl-[1,2,4]triazolo[1,5-c]quinazoline] are less than 10 µM and less than 10 µM.
As to `CN1CCN(c2nc3cc(Cl)ccc3c3cccnc23)CC1` [Example 249, 8-chloro-5-(4-methylpiperazin-1-yl)benzo[f][1,7]naphthyridine], the concentration for a half-maximal effect (EC50) in assay [1] and in assay [2] was less than 10 µM throughout.
As for `CN1CCN(c2nc3cc(Cl)ccc3c3nccnc23)CC1` [Example 250, 8-chloro-5-(4-methylpiperazin-1-yl)pyrazino[2,3-c]quinoline], the half-maximal effective concentration (EC50) in assay [1] and in assay [2] was less than 10 µM in each case.
